The supplement of paper PMC8617591

Tests used:
[1] = test system: Mycobacterium tuberculosis Erdman (autoluminescent); test: total FIC50 (Loewe) at 50% inhibition, three-drug combination (log2); higher = more antagonistic
Method: (§1)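 DiaMOND equipotent three-drug combination dose responses (10 doses, 1.5- or 2-fold spacing, centred on IC90) against autoluminescent M. tuberculosis Erdman in 8 in vitro models. Read-out is OD600, or luminescence for the intracellular and dormancy models, normalised to untreated wells. Hill-fit Einf, AUC25 and GRinf are potency metrics; FIC50 and FIC90 are total Loewe fractional inhibitory concentrations as log2 (negative = synergy).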

[2] = test system: Mycobacterium tuberculosis Erdman (autoluminescent); test: total FIC90 (Loewe) at 90% inhibition, three-drug combination (log2); higher = more antagonistic
Method: as §1

[3] = test system: Mycobacterium tuberculosis Erdman (autoluminescent); test: Einf, fitted maximum growth inhibition of three-drug combination (fraction); higher = stronger maximal inhibition
Method: as §1

[4] = test system: Mycobacterium tuberculosis Erdman (autoluminescent); test: AUC25, normalised area under dose response up to IC25 (three-drug combination) (fraction (0-1)); higher = more potent at low dose
Method: as §1

[5] = test system: Mycobacterium tuberculosis Erdman (autoluminescent); test: GRinf, maximum normalised growth rate inhibition (three-drug combination) (unitless (-1 to 1)); higher = less effect (negative = killing)
Method: as §1

[6] = in vitro model: acidic pH 5.7, time point: constant (~7 days, model-specific)
[7] = in vitro model: acidic pH 5.7, time point: terminal (~4-5 doublings, model-specific)
[8] = in vitro model: butyrate, time point: constant (~7 days, model-specific)
[9] = in vitro model: butyrate, time point: terminal (~4-5 doublings, model-specific)
[10] = in vitro model: cholesterol 0.05 mM, time point: terminal (~4-5 doublings, model-specific)
[11] = in vitro model: cholesterol-high 0.2 mM, time point: constant (~7 days, model-specific)
[12] = in vitro model: cholesterol-high 0.2 mM, time point: terminal (~4-5 doublings, model-specific)
[13] = in vitro model: dormancy (butyrate + nitrate, low O2), time point: constant (~7 days, model-specific)
[14] = in vitro model: dormancy (butyrate + nitrate, low O2), time point: terminal (~4-5 doublings, model-specific)
[15] = in vitro model: standard 7H9 glycerol, time point: constant = terminal
[16] = in vitro model: valerate, time point: constant (~7 days, model-specific)
[17] = in vitro model: valerate, time point: terminal (~4-5 doublings, model-specific)
[18] = in vitro model: intracellular J774, time point: constant = terminal
[19] = in vitro model: cholesterol 0.05 mM, time point: constant (~7 days, model-specific)

NNC(=O)c1ccncc1 [isoniazid] + O=[N+]([O-])c1cn2c(n1)OC[C@@H](OCc1ccc(OC(F)(F)F)cc1)C2 [pretomanid] + NC(=O)c1cnccn1 [pyrazinamide]
total FIC50 [1, 6]: -0.198
total FIC50 [1, 7]: -0.0964
total FIC50 [1, 8]: 0.158
total FIC50 [1, 9]: 0.227
total FIC50 [1, 10]: 5.94
total FIC50 [1, 11]: 0.524
total FIC50 [1, 12]: 0.832
total FIC50 [1, 13]: -0.215
total FIC50 [1, 14]: -0.137
total FIC50 [1, 15]: 0.311
total FIC50 [1, 16]: -0.24
total FIC50 [1, 17]: 0.0468
total FIC90 [2, 7]: -0.184
total FIC90 [2, 8]: 0.768
total FIC90 [2, 9]: 0.423
total FIC90 [2, 12]: 0.548
total FIC90 [2, 13]: -0.286
total FIC90 [2, 14]: -0.122
total FIC90 [2, 18]: 0.732
total FIC90 [2, 17]: 0.0214
Einf [3, 6]: 0.815
Einf [3, 7]: 0.976
Einf [3, 8]: 0.946
Einf [3, 9]: 0.972
Einf [3, 19]: 0.696
Einf [3, 10]: 0.924
Einf [3, 11]: 0.874
Einf [3, 12]: 1
Einf [3, 13]: 0.882
Einf [3, 14]: 0.984
Einf [3, 18]: 1
Einf [3, 15]: 0.923
Einf [3, 16]: 0.888
Einf [3, 17]: 0.922
AUC25 [4, 6]: 0.0986
AUC25 [4, 7]: 0.0871
AUC25 [4, 8]: 0.0971
AUC25 [4, 9]: 0.0657
AUC25 [4, 19]: 0.106
AUC25 [4, 10]: 0.0922
AUC25 [4, 11]: 0.0717
AUC25 [4, 12]: 0.0681
AUC25 [4, 13]: 0.0747
AUC25 [4, 14]: 0.0455
AUC25 [4, 15]: 0.0648
AUC25 [4, 16]: 0.115
AUC25 [4, 17]: 0.0719
GRinf [5, 6]: -0.16
GRinf [5, 7]: -0.481
GRinf [5, 8]: -0.0723
GRinf [5, 9]: -0.0263
GRinf [5, 19]: -0.21
GRinf [5, 10]: -0.353
GRinf [5, 11]: -0.172
GRinf [5, 12]: -0.653
GRinf [5, 13]: 0.238
GRinf [5, 14]: -0.172
GRinf [5, 18]: -0.492
GRinf [5, 15]: 0.0829
GRinf [5, 16]: -0.0645
GRinf [5, 17]: 0.077

CC(=O)NC[C@H]1CN(c2ccc(N3CCOCC3)c(F)c2)C(=O)O1 [linezolid] + CO[C@H]1/C=C/O[C@@]2(C)Oc3c(C)c(O)c4c(O)c(c(/C=N/N5CCN(C6CCCC6)CC5)c(O)c4c3C2=O)NC(=O)/C(C)=C\C=C\[C@H](C)[C@H](O)[C@@H](C)[C@@H](O)[C@@H](C)[C@H](OC(C)=O)[C@@H]1C [rifapentine] + CO[C@H]1/C=C/O[C@@]2(C)Oc3c(C)c(O)c4c(O)c(c(/C=N/N5CCN(C)CC5)c(O)c4c3C2=O)NC(=O)/C(C)=C\C=C\[C@H](C)[C@H](O)[C@@H](C)[C@@H](O)[C@@H](C)[C@H](OC(C)=O)[C@@H]1C [rifampicin]
total FIC50 [1, 6]: 0.407
total FIC50 [1, 7]: 0.327
total FIC50 [1, 8]: 0.125
total FIC50 [1, 9]: 0.0289
total FIC50 [1, 19]: 0.106
total FIC50 [1, 10]: -0.0658
total FIC50 [1, 11]: 0.114
total FIC50 [1, 12]: 0.344
total FIC50 [1, 13]: 0.564
total FIC50 [1, 14]: -0.00521
total FIC50 [1, 15]: 0.208
total FIC50 [1, 16]: 0.124
total FIC50 [1, 17]: 0.039
total FIC90 [2, 7]: 0.0907
total FIC90 [2, 9]: -0.462
total FIC90 [2, 10]: 0.0643
total FIC90 [2, 11]: 0.179
total FIC90 [2, 12]: 0.213
total FIC90 [2, 13]: 0.837
total FIC90 [2, 14]: 0.318
total FIC90 [2, 18]: -0.258
total FIC90 [2, 17]: -0.378
Einf [3, 6]: 0.893
Einf [3, 7]: 0.979
Einf [3, 8]: 0.869
Einf [3, 9]: 0.933
Einf [3, 19]: 0.654
Einf [3, 10]: 0.909
Einf [3, 11]: 0.934
Einf [3, 12]: 1
Einf [3, 13]: 0.884
Einf [3, 14]: 0.965
Einf [3, 18]: 0.93
Einf [3, 15]: 0.879
Einf [3, 16]: 0.862
Einf [3, 17]: 0.933
AUC25 [4, 6]: 0.0833
AUC25 [4, 7]: 0.0709
AUC25 [4, 8]: 0.0767
AUC25 [4, 9]: 0.0594
AUC25 [4, 19]: 0.147
AUC25 [4, 10]: 0.127
AUC25 [4, 11]: 0.104
AUC25 [4, 12]: 0.0979
AUC25 [4, 13]: 0.0711
AUC25 [4, 14]: 0.0539
AUC25 [4, 15]: 0.0512
AUC25 [4, 16]: 0.0508
AUC25 [4, 17]: 0.029
GRinf [5, 6]: -0.162
GRinf [5, 7]: -0.204
GRinf [5, 8]: 0.14
GRinf [5, 9]: 0.106
GRinf [5, 19]: -0.259
GRinf [5, 10]: -0.305
GRinf [5, 11]: -0.348
GRinf [5, 12]: -0.881
GRinf [5, 13]: 0.158
GRinf [5, 14]: -0.00168
GRinf [5, 18]: -0.12
GRinf [5, 15]: 0.155
GRinf [5, 16]: 0.0506
GRinf [5, 17]: 0.0203

CC(=O)NC[C@H]1CN(c2ccc(N3CCOCC3)c(F)c2)C(=O)O1 [linezolid] + COc1c(N2C[C@@H]3CCCN[C@@H]3C2)c(F)cc2c(=O)c(C(=O)O)cn(C3CC3)c12 [moxifloxacin] + CO[C@H]1/C=C/O[C@@]2(C)Oc3c(C)c(O)c4c(O)c(c(/C=N/N5CCN(C6CCCC6)CC5)c(O)c4c3C2=O)NC(=O)/C(C)=C\C=C\[C@H](C)[C@H](O)[C@@H](C)[C@@H](O)[C@@H](C)[C@H](OC(C)=O)[C@@H]1C [rifapentine]
total FIC50 [1, 6]: 0.827
total FIC50 [1, 7]: 0.952
total FIC50 [1, 8]: 0.365
total FIC50 [1, 9]: 0.352
total FIC50 [1, 19]: 0.586
total FIC50 [1, 10]: 0.581
total FIC50 [1, 11]: 0.553
total FIC50 [1, 12]: 0.377
total FIC50 [1, 13]: 1.04
total FIC50 [1, 14]: 1.31
total FIC50 [1, 15]: 0.709
total FIC50 [1, 16]: 0.0907
total FIC50 [1, 17]: 0.472
total FIC90 [2, 7]: 0.684
total FIC90 [2, 8]: 0.691
total FIC90 [2, 9]: 0.196
total FIC90 [2, 10]: -0.237
total FIC90 [2, 11]: 0.386
total FIC90 [2, 12]: 0.836
total FIC90 [2, 13]: 0.925
total FIC90 [2, 14]: 1.02
total FIC90 [2, 18]: 0.0429
total FIC90 [2, 15]: 0.569
total FIC90 [2, 17]: 0.387
Einf [3, 6]: 0.8
Einf [3, 7]: 0.976
Einf [3, 8]: 0.876
Einf [3, 9]: 0.929
Einf [3, 19]: 0.694
Einf [3, 10]: 0.909
Einf [3, 11]: 0.913
Einf [3, 12]: 1
Einf [3, 13]: 0.862
Einf [3, 14]: 0.979
Einf [3, 18]: 0.911
Einf [3, 15]: 0.902
Einf [3, 16]: 0.834
Einf [3, 17]: 0.914
AUC25 [4, 6]: 0.0572
AUC25 [4, 7]: 0.0558
AUC25 [4, 8]: 0.0841
AUC25 [4, 9]: 0.0527
AUC25 [4, 19]: 0.157
AUC25 [4, 10]: 0.129
AUC25 [4, 11]: 0.11
AUC25 [4, 12]: 0.113
AUC25 [4, 13]: 0.0602
AUC25 [4, 14]: 0.0346
AUC25 [4, 15]: 0.0607
AUC25 [4, 16]: 0.109
AUC25 [4, 17]: 0.0452
GRinf [5, 6]: 0.0276
GRinf [5, 7]: -0.0724
GRinf [5, 8]: 0.149
GRinf [5, 9]: 0.0958
GRinf [5, 19]: -0.35
GRinf [5, 10]: -0.32
GRinf [5, 11]: -0.639
GRinf [5, 12]: -0.938
GRinf [5, 13]: 0.223
GRinf [5, 14]: -0.11
GRinf [5, 18]: -0.0811
GRinf [5, 15]: 0.0317
GRinf [5, 16]: 0.129
GRinf [5, 17]: 0.0886
